This passage reports Activity and ED50 results from ChEMBL document CHEMBL1144111, “Strong antinociceptive effect of incarvillateine, a novel monoterpene alkaloid from Incarvillea sinensis” (1999).

Each structure is given as a SMILES string. Calls of active or inactive are those of the source. The calls are words filed in the database; no cut-off is given here.

In experiment [1] the test system is Mus musculus. Nature of the experiment: Antinociceptive activity against formalin-induced pain in ip dosed ddY mouse assessed as reduction of paw licking response during inflammatory phase pretreated for 10 mins before formalin challenge relative to morphine. The format is functional.
In experiment [2] the test system is Mus musculus. Nature of the experiment: Antinociceptive activity against formalin-induced pain in ip dosed ddY mouse assessed as reduction of paw licking response during neurogenic phase pretreated for 10 mins before formalin challenge. The experiment is classed as functional.
In experiment [3] the test system is Mus musculus. Description: Antinociceptive activity against formalin-induced pain in ip dosed ddY mouse assessed as reduction of paw licking response during inflammatory phase pretreated for 10 mins before formalin challenge. The format is functional.
The subject of experiment [4] is Mus musculus. Description: Antinociceptive activity against formalin-induced pain in ip dosed ddY mouse assessed as reduction of paw licking response during neurogenic phase pretreated for 10 mins before formalin challenge relative to morphine. The experiment is classed as functional.
For experiment [5], the system named is Mus musculus. Description: Antinociceptive activity against formalin-induced pain in ddY mouse assessed as reduction of paw licking response during neurogenic phase at 20 mg/kg, ip pretreated for 10 mins before formalin challenge in presence of Naloxone. The format is functional, organism-based. Further details: dose 20 mg/kg.

The ED50 is the dose that gives a 50% effect, or the effect in half of the subjects. `COc1cc([C@H]2[C@H](C(=O)O[C@@H]3C[C@@H]4[C@@H](CN(C)C[C@@H]4C)[C@@H]3C)[C@H](c3ccc(O)c(OC)c3)[C@H]2C(=O)O[C@@H]2C[C@@H]3[C@@H](CN(C)C[C@@H]3C)[C@@H]2C)ccc1O` [INCARVILLATEINE]: the Activity was 1.33 in the experiment with Mus musculus [1], “Dose-dependent effect” with Mus musculus [2], “Dose-dependent effect” in the experiment on Mus musculus [3] and 1.06 with Mus musculus [4]. Besides, the ED50 stood at 17.4 µmol/kg in the experiment with Mus musculus [2] and 7.8 µmol/kg in the experiment on Mus musculus [3].
Regarding `CN1CC[C@]23c4c5ccc(O)c4O[C@H]2[C@@H](O)C=C[C@H]3[C@H]1C5` [MORPHINE], the median effective dose (ED50) in the experiment on Mus musculus [2] came out at 18.4 µmol/kg; in the experiment on Mus musculus [3], 10.4 µmol/kg. Further, the outcome with Mus musculus [5] was inactive.
